Test results published in US11234914B2, “Monosubstituted urea derivatives as a self-tanning substance” (MERCK PATENT GMBH, priority 2016, dated 2022).

Legend:
[1] = system: Normal Human Epidermal Keratinocytes (NHEK) and Normal Human Epidermal Melanocytes, lightly pigmented (NHEM-LP) co-culture; assay: Synthesis of melanin in NHEK/NHEM-LP co-culture; format: cell-based; conditions: 240 hours (10 days) incubation, NHEK:NHEM-LP 2:1, OD 405 nm
Method: Evaluation of the Synthesis of Melanin in a Cell Culture Model Containing Two Cell Types (Co-Culture), Firstly Normal Human Epidermal KeratinoCytes (NHEK) and Secondly Normal Human Epidermal Melanocytes, Lightly Pigmented (NHEM-LP)
The two cell types NHEK and NHEM-LP (NHEK:NHEM-LP) are employed in a ratio of 2:1.
The culture medium consists of the media keratinocyte-SFM (2 parts by volume) and medium M254 (1 part by volume).
Keratinocyte-SFM contains 0.25 ng/ml of epidermal growth factor (EGF), 25 μg/ml of pituitary extract (PE) and 25 μg/ml of gentamycin and was purchased from Thermo Fisher Scientific.
M254 contains PMA-free HMGS-2, 5 μg/ml of insulin, 50 U/ml of penicillin, 50 μg/ml of streptomycin and 25 μg/ml of gentamycin and was purchased from Thermo Fisher Scientific.
NHEK and NHEM-LP were incubated in the culture medium in microtitre plates (24-well plates) for 24 hours (37° C., 5% CO2). The culture medium was removed and replaced by an assay medium which contained the culture medium and compounds Ia, Ib and Ic to be tested or alternatively no test substance, the reference L-tyrosine (1 mM), 200 μM of IBMX or the solvent control 0.1% of THF, 0.15% of THF. Compounds Ia, Ib and Ic are added as solution (0.15% in THF). After replacement of the assay medium, the cells were incubated again for 240 hours (10 days). On days 3 and 7, assay medium was again added. All experimental investigations were carried out using a triple determination. After the end of the incubation, the melanin was extracted by cell lysis with 0.5 N NaOH. The optical density (OD) of each sample was measured at 405 nm. The melanin quantity was calculated from melanin standards (standard curve 0.39 to 100 μg/ml of melanin).

[2] = system: 3D melanized reconstructed human epidermis (RHEs-MEL); assay: Tanning properties in vitro on reconstructed epidermis; format: cell-based; conditions: compound at 25 μM and 12.5 M
Method: Evaluation of the Tanning Properties In Vitro on Reconstructed Epidermis
In this study, the tanning properties of compound Ic are investigated in vitro on 3D melanized reconstructed human epidermis (RHEs-MEL). The compound IBMX (3-isobutyl-1-methylxanthine) 100 μM is employed as positive control. Compound Ic is employed 25 μM and […]. Untreated reconstructed skin is used as negative control. The in vitro skin is treated systemically with the compounds to be investigated in a culture medium for 10 days and then analysed.

| SMILES | stimulation of melanin synthesis ([1]; tested at 45 μM) [%] | ITA value (individual typology angle) ([2]; 10 days, both concentrations) | amount of melanin ([2]; 10 days, both concentrations) | tanning properties compared with positive control IBMX 100 μM ([2]; systemic treatment in culture medium for 10 days, evident for both concentrations) | stimulation of melanin synthesis ([1]; tested at 20 μM) [%] | stimulation of melanin synthesis ([1]; tested at 30 μM) [%] |
| --- | --- | --- | --- | --- | --- | --- |
| NC(=O)NCc1ccccc1 [Compound Ia, Benzylurea] | 17 |  |  |  |  |  |
| COc1ccc(CNC(N)=O)cc1 [Compound Ib, (4-methoxybenzyl)urea] | 18 |  |  |  |  |  |
| NC(=O)NCc1ccc2c(c1)OCO2 [Compound Ic, benzo[1,3]dioxol-5ylmethylurea] |  | reduction | increased | comparably good properties as IBMX at 100 μM | 23 | 44 |
